{"source": "ChEMBL document CHEMBL3872219", "about": "“Computational and synthetic approaches for developing Lavendustin B derivatives as allosteric inhibitors of HIV-1 integrase” (Eur J Med Chem, 2016)", "key": {"[1]": {"test": "Inhibition of FLAG or His-tagged HIV1 integrase 3' processing activity expressed in Escherichia coli BL21(DE3) using [32P]-labeled blunt ended 21-mer or recessed ended 19-mer double stranded U5 DNA as substrate preincubated for 30 mins followed by substrate addition measured after 1 hr by polyacrylamide gel electrophoresis", "parameters": "species or system Human immunodeficiency virus 1"}, "[2]": {"test": "Inhibition of His-tagged LEDGF/p75 (unknown origin) dependent FLAG or His-tagged HIV1 integrase activity expressed in Escherichia coli BL21(DE3) using 32-mer blunt-ended U5 viral donor DNA and pBR322 target DNA preincubated for 5 mins followed by LEDGF/p75 addition measured after 90 mins by agarose gel electrophoresis"}, "[3]": {"test": "Inhibition of HIV1 His-tagged integrase/His-tagged LEDGF/p75 (unknown origin) interaction expressed in Escherichia coli BL21(DE3) preincubated for 30 mins with viral integrase followed by LEDGF/p75 addition measured after 30 mins by HTRF assay"}, "[4]": {"system": "Human immunodeficiency virus 1", "test": "Antiviral activity against VSV-g pseudotyped HIV1 infected in HEK293T cells incubated for 2 hrs prior to viral infection followed by compound wash out at 2 hrs post infection and subsequent compound readdition measured after 48 hrs by luciferase reporter gene assay", "type": "functional, cell-based", "settings": "HEK-293T"}, "[5]": {"test": "Cytotoxicity against HEK293T cells assessed as reduction in cell viability", "type": "toxicity, cell-based", "settings": "human, hek-293t"}}, "note": "Activity calls are given as the source filed them. The rule behind the calls is not given here.", "data": [{"smiles": "O=C(O)c1cc(N(Cc2cccc(F)c2)Cc2cccc(F)c2)ccc1O", "values": [{"measurement": "IC50", "setting": "[1]", "value": 68.6, "unit": "µM"}, {"measurement": "IC50", "setting": "[2]", "value": 18.5, "unit": "µM"}, {"measurement": "IC50", "setting": "[3]", "value": 20.8, "unit": "µM"}]}, {"smiles": "O=C(O)c1cc(N(Cc2ccccc2F)Cc2ccccc2F)ccc1O", "values": [{"measurement": "IC50", "setting": "[1]", "value": 63.1, "unit": "µM"}, {"measurement": "IC50", "setting": "[2]", "value": 9, "unit": "µM"}, {"measurement": "IC50", "setting": "[3]", "value": 17.8, "unit": "µM"}]}, {"smiles": "Cc1ccccc1CN(Cc1ccccc1C)c1ccc(O)c(C(=O)O)c1", "values": [{"measurement": "IC50", "setting": "[1]", "value": "> 70", "unit": "µM"}, {"measurement": "IC50", "setting": "[2]", "value": 14.7, "unit": "µM"}, {"measurement": "IC50", "setting": "[3]", "value": 27.6, "unit": "µM"}]}, {"smiles": "O=C(O)c1cc(N(Cc2cccc(Cl)c2)Cc2cccc(Cl)c2)ccc1O", "values": [{"measurement": "IC50", "setting": "[1]", "value": "> 70", "unit": "µM"}, {"measurement": "IC50", "setting": "[2]", "value": 13.5, "unit": "µM"}, {"measurement": "IC50", "setting": "[3]", "value": 19.5, "unit": "µM"}]}, {"smiles": "O=C(O)c1cc(N(Cc2ccccc2Cl)Cc2ccccc2Cl)ccc1O", "values": [{"measurement": "IC50", "setting": "[1]", "value": 25.6, "unit": "µM"}, {"measurement": "Activity", "setting": "[4]", "value": "Active"}, {"measurement": "Activity", "setting": "[5]", "value": "Toxic"}, {"measurement": "IC50", "setting": "[2]", "value": 3.78, "unit": "µM"}, {"measurement": "IC50", "setting": "[3]", "value": 3.28, "unit": "µM"}]}, {"smiles": "O=C(O)c1cc(N(Cc2ccccc2)Cc2ccccc2)ccc1O", "values": [{"measurement": "IC50", "setting": "[1]", "value": 70, "unit": "µM"}, {"measurement": "IC50", "setting": "[2]", "value": 7.93, "unit": "µM"}, {"measurement": "IC50", "setting": "[3]", "value": 8.75, "unit": "µM"}]}]}
